Results: US12077503B2, “Substituted cyclic amides and their use as herbicides” (FMC CORPORATION, priority 2015, dated 2024)

Assays:
Format in all cases: in vivo
Kochia (Kochia scoparia) [1] = assay: Test A preemergence; conditions: Bassia scoparia, pre-emergence, 240 h, 0 to 100 scale where 0 is no effect and 100 is complete control, read-out: Kochia plant response rating
Method in brief: (§1)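 Each rating is a visual injury score from 0 to 100 given about 10 d after treatment, judged against untreated controls kept alongside in the greenhouse. In loam soil–sand blend, seeds got a preemergence directed soil spray, while postemergence plants were 2 to 10 cm tall at spraying.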

[2] = tested on: barnyardgrass (Echinochloa crus-galli); assay: Test A preemergence; conditions: Echinochloa crus-galli, pre-emergence, 240 h, 0 to 100 scale where 0 is no effect and 100 is complete control, read-out: Barnyardgrass plant response rating
Method in brief: as §1

[3] = tested on: giant foxtail (Setaria faberii); assay: Test A preemergence; conditions: Setaria faberi, pre-emergence, 240 h, 0 to 100 scale where 0 is no effect and 100 is complete control, read-out: Foxtail, Giant plant response rating
Method in brief: as §1

[4] = tested on: pigweed (Amaranthus retroflexus); assay: Test A preemergence; conditions: Amaranthus retroflexus, pre-emergence, 240 h, 0 to 100 scale where 0 is no effect and 100 is complete control, read-out: Pigweed plant response rating
[5] = tested on: ragweed (common ragweed, Ambrosia elatior); assay: Test A preemergence; conditions: Ambrosia artemisiifolia, pre-emergence, 240 h, 0 to 100 scale where 0 is no effect and 100 is complete control, read-out: Ragweed plant response rating
Method in brief: as §1

[6] = tested on: ryegrass, Italian (Italian ryegrass, Lolium multiflorum); assay: Test A preemergence; conditions: Lolium multiflorum, pre-emergence, 240 h, 0 to 100 scale where 0 is no effect and 100 is complete control, read-out: Ryegrass, Italian plant response rating
Method in brief: as §1

[7] = tested on: Galium (catchweed bedstraw, Galium aparine); assay: Test A postemergence; conditions: Galium, post-emergence, 240 h
Method in brief: as §1

Kochia (Kochia scoparia) [8] = assay: Test A postemergence; conditions: Bassia scoparia, post-emergence, 240 h
Method in brief: as §1

[9] = tested on: barnyardgrass (Echinochloa crus-galli); assay: Test A postemergence; conditions: Echinochloa crus-galli, post-emergence, 240 h
Method in brief: as §1

[10] = tested on: blackgrass (Alopecurus myosuroides); assay: Test A postemergence; conditions: Alopecurus myosuroides, post-emergence, 240 h
Method in brief: as §1

corn (Zea mays) = assay: Test A postemergence; conditions: Zea mays, post-emergence, 240 h
Method in brief: as §1

[11] = tested on: giant foxtail (Setaria faberii); assay: Test A postemergence; conditions: Setaria faberi, post-emergence, 240 h
Method in brief: as §1

[12] = tested on: pigweed (Amaranthus retroflexus); assay: Test A postemergence; conditions: Amaranthus retroflexus, post-emergence, 240 h
Method in brief: as §1

[13] = tested on: ragweed (common ragweed, Ambrosia elatior); assay: Test A postemergence; conditions: Ambrosia artemisiifolia, post-emergence, 240 h
Method in brief: as §1

[14] = tested on: ryegrass, Italian (Italian ryegrass, Lolium multiflorum); assay: Test A postemergence; conditions: Lolium multiflorum, post-emergence, 240 h
Method in brief: as §1

[15] = tested on: wheat (Triticum aestivum); assay: Test A postemergence; conditions: Triticum aestivum, post-emergence, 240 h
Method in brief: as §1

[16] = tested on: barnyardgrass (Echinochloa crus-galli); assay: Test B flooded paddy test; conditions: Echinochloa crus-galli, 250 g ai/ha, Flood; 0 to 100 scale where 0 is no effect and 100 is complete control; read-out: Barnyardgrass plant response rating
Method in brief: (§2)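 Compound goes directly into floodwater once pots are flooded 3 cm above soil, targeting plants at two leaves; the water depth is then held for the test duration. Plants sit 13–15 d in a greenhouse and are rated visually, 100 denoting complete control.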

[17] = tested on: ducksalad (Heteranthera limosa); assay: Test B flooded paddy test; conditions: Heteranthera limosa, 250 g ai/ha, Flood; 0 to 100 scale where 0 is no effect and 100 is complete control; read-out: Ducksalad plant response rating
Method in brief: as §2

rice (Oryra sativa) = assay: Test B flooded paddy test; conditions: Oryza sativa, 250 g ai/ha, Flood; 0 to 100 scale where 0 is no effect and 100 is complete control; read-out: Rice plant response rating
Method in brief: as §2

[18] = tested on: sedge, umbrella (small-flower umbrella sedge, Cyperus difformis); assay: Test B flooded paddy test; conditions: Cyperus difformis, 250 g ai/ha, Flood; 0 to 100 scale where 0 is no effect and 100 is complete control; read-out: Sedge, Umbrella plant response rating
Method in brief: as §2

[19] = 125 g ai/ha, preemergence, approx. 10 d

**Q.** Which results are given for CN1C[C@H](c2cc(C(F)F)cs2)[C@@H](C(=O)Nc2cnccc2C(F)(F)F)C1=O [Compound 1091]?
**A.** pest or weed control at 31 g/ha (Kochia (Kochia scoparia) [1]; 31 g ai/ha, Preemergence): 20%; pest or weed control at 125 g/ha (Kochia (Kochia scoparia) [1]; [19]): 40%; pest or weed control at 31 g/ha ([2]; 31 g ai/ha, Preemergence): 0%; pest or weed control at 125 g/ha [2, 19]: 0%; pest or weed control at 31 g/ha ([3]; 31 g ai/ha, Preemergence): 50%; pest or weed control at 125 g/ha [3, 19]: 100%; pest or weed control at 31 g/ha ([4]; 31 g ai/ha, Preemergence): 10%; pest or weed control at 125 g/ha [4, 19]: 0%; pest or weed control at 31 g/ha ([5]; 31 g ai/ha, Preemergence): 100%; pest or weed control at 125 g/ha [5, 19]: 0%; pest or weed control at 31 g/ha ([6]; 31 g ai/ha, Preemergence): 0%; pest or weed control at 125 g/ha [6, 19]: 0%; pest or weed control at 125 g/ha ([7]; 125 g ai/ha, postemergence, visual injury on 0 to 100 scale (0 no effect, 100 complete control), approx. 10 d, read-out: Galium plant response rating): 0%; pest or weed control at 31 g/ha ([7]; Postemergence, 31 g ai/ha, visual injury after approx. 10 d, 0 to 100 scale, 0 no effect, 100 complete control, read-out: Plant response rating, Galium): 0%; pest or weed control at 125 g/ha (Kochia (Kochia scoparia) [8]; 125 g ai/ha, postemergence, visual injury on 0 to 100 scale (0 no effect, 100 complete control), approx. 10 d, read-out: Kochia plant response rating): 0%; pest or weed control at 31 g/ha (Kochia (Kochia scoparia) [8]; Postemergence, 31 g ai/ha, visual injury after approx. 10 d, 0 to 100 scale, 0 no effect, 100 complete control, read-out: Plant response rating, Kochia): 0%; pest or weed control at 125 g/ha ([9]; 125 g ai/ha, postemergence, visual injury on 0 to 100 scale (0 no effect, 100 complete control), approx. 10 d, read-out: Barnyardgrass plant response rating): 0%; pest or weed control at 31 g/ha ([9]; Postemergence, 31 g ai/ha, visual injury after approx. 10 d, 0 to 100 scale, 0 no effect, 100 complete control, read-out: Plant response rating, Barnyardgrass): 0%; pest or weed control at 125 g/ha ([10]; 125 g ai/ha, postemergence, visual injury on 0 to 100 scale (0 no effect, 100 complete control), approx. 10 d, read-out: Blackgrass plant response rating): 0%; pest or weed control at 31 g/ha ([10]; Postemergence, 31 g ai/ha, visual injury after approx. 10 d, 0 to 100 scale, 0 no effect, 100 complete control, read-out: Plant response rating, Blackgrass): 0%; plant injury at 125 g/ha (corn (Zea mays); 125 g ai/ha, postemergence, visual injury on 0 to 100 scale (0 no effect, 100 complete control), approx. 10 d, read-out: Corn plant response rating): 0%; Corn plant response rating (crop injury, 0 = no effect, 100 = complete kill) at 31 g/ha (corn (Zea mays); Postemergence, 31 g ai/ha, visual injury after approx. 10 d, 0 to 100 scale, 0 no effect, 100 complete control): 0%; pest or weed control at 125 g/ha ([11]; 125 g ai/ha, postemergence, visual injury on 0 to 100 scale (0 no effect, 100 complete control), approx. 10 d, read-out: Foxtail, Giant plant response rating): 0%; pest or weed control at 31 g/ha ([11]; Postemergence, 31 g ai/ha, visual injury after approx. 10 d, 0 to 100 scale, 0 no effect, 100 complete control, read-out: Plant response rating, Foxtail, Giant): 0%; pest or weed control at 125 g/ha ([12]; 125 g ai/ha, postemergence, visual injury on 0 to 100 scale (0 no effect, 100 complete control), approx. 10 d, read-out: Pigweed plant response rating): 30%; pest or weed control at 31 g/ha ([12]; Postemergence, 31 g ai/ha, visual injury after approx. 10 d, 0 to 100 scale, 0 no effect, 100 complete control, read-out: Plant response rating, Pigweed): 0%; pest or weed control at 125 g/ha ([13]; 125 g ai/ha, postemergence, visual injury on 0 to 100 scale (0 no effect, 100 complete control), approx. 10 d, read-out: Ragweed plant response rating): 0%; pest or weed control at 31 g/ha ([13]; Postemergence, 31 g ai/ha, visual injury after approx. 10 d, 0 to 100 scale, 0 no effect, 100 complete control, read-out: Plant response rating, Ragweed): 0%; pest or weed control at 125 g/ha ([14]; 125 g ai/ha, postemergence, visual injury on 0 to 100 scale (0 no effect, 100 complete control), approx. 10 d, read-out: Ryegrass, Italian plant response rating): 0%; pest or weed control at 31 g/ha ([14]; Postemergence, 31 g ai/ha, visual injury after approx. 10 d, 0 to 100 scale, 0 no effect, 100 complete control, read-out: Plant response rating, Ryegrass, Italian): 0%; plant injury at 125 g/ha ([15]; 125 g ai/ha, postemergence, visual injury on 0 to 100 scale (0 no effect, 100 complete control), approx. 10 d, read-out: Wheat plant response rating): 0%; plant injury at 31 g/ha ([15]; Postemergence, 31 g ai/ha, visual injury after approx. 10 d, 0 to 100 scale, 0 no effect, 100 complete control, read-out: Plant response rating, Wheat): 0%; pest or weed control at 250 g/ha [16]: 0%; pest or weed control at 250 g/ha [17]: 0%; pest or weed control at 250 g/ha (rice (Oryra sativa)): 0%; pest or weed control at 250 g/ha [18]: 0%
